Data taken from US9353051B2, “Antiviral drugs for treatment or prevention of dengue infection” (Siga Technologies Inc., priority 2007, dated 2016).
Like-named read-outs stand apart in the source and are kept apart here.

Tests used:
[1] = system: Dengue-2 (Strain New Guinea C); test: viral yield assay against Dengue-2 in Vero cells; assay type: cell-based; details: Dengue virus, Vero cells; for EC90: read-out: EC90 Yield Den-2
Procedure, shortened: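 Vero cells infected with dengue-2 at MOI 0.1 were treated with compound (DMSO control) at 37° C., harvested 48 h post infection and titered on Vero cells.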

[2] = system: Bovine Viral Diarrhea Virus (BVDV); test: specificity: activity against BVDV; assay type: cell-based; details: Bovine viral diarrhea virus isolates and strains; read-out: Specificity BVDV
Description: Select compounds were also tested for more broad spectrum activity against other members of the Flaviviridae family including Modoc, which is a murine flavivirus, as well as Bovine Viral Diarrhea Virus (BVDV), which is a Pestivirus. Since dengue virus is able to replicate in multiple cell lines and to ensure that the activity seen in vero cells is consistent, select compounds were also tested for their effective concentration in a viral yield assay against dengue-2 in C6/36 mosquito cells.

[3] = MOI 0.1, harvested 48 hours post infection, read-out: Activity (anti-dengue 2 viral activity, EC50)
[4] = viral yield assay, read-out: EC50 Yield Den-2

| SMILES | EC50 [1, 3] | also measured |
| --- | --- | --- |
| CC(C)N(C)S(=O)(=O)c1ccc(NC(=O)Cn2cnc3ccc(Cl)cc3c2=O)cc1 [Compound 6, 2-(6-Chloro-4-oxo-4H-quinazolin-3-yl)-N-[4-(isopropyl-methyl-sulfamoyl)-phenyl]-acetamide] | 1 to 10 µM | EC50 [1, 4]: 1.8 µM; EC90 ([1]; viral yield assay): 43.2 µM; EC50 [2]: 64 µM |
| CC(C)N(C)S(=O)(=O)c1ccc(NC(=O)Cn2cnc3cc(F)ccc3c2=O)cc1 [Compound 7, 2-(7-Fluoro-4-oxo-4H-quinazolin-3-yl)-N-[4-(isopropyl-methyl-sulfamoyl)-phenyl]-acetamide] | 1 to 10 µM | EC50 [1, 4]: 4.6 µM; EC90 ([1]; viral yield assay): > 50 µM; EC50 [2]: > 50 µM |
| CCN(CC)S(=O)(=O)c1ccc(NC(=O)Cn2[nH]c(=O)c3ccccc3c2=O)cc1 [Compound 8, N-(4-Diethylsulfamoyl-phenyl)-2-(1,4-dioxo-3,4-dihydro-1H-phthalazin-2-yl)-acetamide] | 1 to 10 µM | EC50 [1, 4]: 2.8 µM; EC90 ([1]; viral yield assay): 25.6 µM; EC50 [2]: > 50 µM |
| CCN(CC)S(=O)(=O)c1ccc(NC(=O)CN2C(=O)c3cccc4cccc(c34)C2=O)cc1 [Compound 9, N-(4-Diethylsulfamoyl-phenyl)-2-(1,3-dioxo-1H,3H-benzo[de]isoquinolin-2-yl)-acetamide] | 1 to 10 µM | EC50 [1, 4]: 1.3 µM; EC90 ([1]; viral yield assay): 7.3 µM; EC50 [2]: > 50 µM |
| NS(=O)(=O)c1ccc(NC(=O)Cn2cnc3cc([N+](=O)[O-])ccc3c2=O)cc1 [Compound 110, 2-(7-Nitro-4-oxo-4H-quinazolin-3-yl)-N-(4-sulfamoyl-phenyl)-acetamide] | > 25 µM |  |
| NS(=O)(=O)c1ccc(NC(=O)COC(=O)Cn2cnc3ccccc3c2=O)cc1 [Compound 111, (4-Oxo-4H-quinazolin-3-yl)-acetic acid (4-sulfamoyl-phenylcarbamoyl)-methyl ester] | > 25 µM |  |
| CN(Cc1nc2ccccc2c(=O)[nH]1)C(=O)c1ccc(S(=O)(=O)N(C)C)cc1 [Compound 112, 4-Dimethylsulfamoyl-N-methyl-N-(4-oxo-3,4-dihydro-quinazolin-2-ylmethyl)-benzamide] | > 25 µM |  |
| O=C(Cn1nnc2ccccc2c1=O)Nc1ccc(S(=O)(=O)N2CCCC2)cc1 [Compound 113, 2-(4-Oxo-4H-benzo[d][1,2,3]triazin-3-yl)-N-[4-(pyrrolidine-1-sulfonyl)-phenyl]-acetamide] | > 25 µM |  |
| CCN(CC(=O)NCCc1ccc(S(N)(=O)=O)cc1)Cc1nc2ccccc2c(=O)[nH]1 [Compound 114, 2-[Ethyl-(4-oxo-3,4-dihydro-quinazolin-2-ylmethyl)-arnino]-N-[2-(4-sulfamoyl-phenyl)-ethyl]-acetamide] | > 25 µM |  |
| CCN(CC(=O)Nc1ccc(S(=O)(=O)N(C)C)cc1)Cc1nc2ccccc2c(=O)[nH]1 [Compound 115, N-(4-Dimethylsulfamoyl-phenyl)-2-[ethyl-(4-oxo-3,4-dihydro-quinazolin-2-ylmethyl)-amino]-acetamide] | > 25 µM |  |
| NS(=O)(=O)c1ccc(NC(=O)COC(=O)CCc2nc3ccccc3c(=O)[nH]2)cc1 [Compound 116, 3-(4-Oxo-3,4-dihydro-quinazolin-2-yl)-propionic acid (4-sulfamoyl-phenylcarbamoyl)-methyl ester] | > 25 µM |  |
| Cc1ccc(S(=O)(=O)N(C)c2ccc(OC(=O)Cn3cnc4ccccc4c3=O)cc2)cc1C [Compound 117, (4-Oxo-4H-quinazolin-3-yl)-acetic acid 4-[(3,4-dimethyl-benzenesulfonyl)-methyl-amino]-phenyl ester] | > 25 µM |  |
| CCN(CC(=O)NCCc1ccc(S(N)(=O)=O)cc1)Cc1nc2cc(OC)c(OC)cc2c(=O)[nH]1 [Compound 118, 2-[(6,7-Dimethoxy-4-oxo-3,4-dihydro-quinazolin-2-ylmethyl)-ethyl-amino]-N-[2-(4-sulfamoyl-phenyl)-ethyl]-acetamide] | > 25 µM |  |
| NS(=O)(=O)c1ccc(NC(=O)Cn2c(=O)cnc3ccccc32)cc1 [Compound 119, 2-(2-Oxo-2H-quinoxalin-1-yl)-N-(4-sulfamoyl-phenyl)-acetamide] | > 25 µM |  |
| CCN(CC(=O)Nc1ccc(S(N)(=O)=O)cc1)Cc1nc2cc(OC)c(OC)cc2c(=O)[nH]1 [Compound 120, 2-[(6,7-Dimethoxy-4-oxo-3,4-dihydro-quinazolin-2-ylmethyl)-ethyl-amino]-N-(4-sulfamoyl-phenyl)-acetamide] | > 25 µM |  |
| O=C(Cn1cnc2ccccc2c1=O)Nc1cccc(S(=O)(=O)N2CCCC2)c1 [Compound 121, 2-(4-Oxo-4H-quinazolin-3-yl)-N-[3-(pyrrolidine-1-sulfonyl)-phenyl]-acetamide] | > 25 µM |  |
| CN(c1ccccc1)S(=O)(=O)c1cccc(NC(=O)Cn2cnc3ccccc3c2=O)c1 [Compound 122, N-[3-(Methyl-phenyl-sulfamoyl)-phenyl]-2-(4-oxo-4H-quinazolin-3-yl)-acetamide] | > 25 µM |  |

| SMILES | EC50 [1, 3] | also measured |
| --- | --- | --- |
| O=C(Cn1cnc2cc([N+](=O)[O-])ccc2c1=O)Nc1ccc(S(=O)(=O)N2CCCC2)cc1 [Compound 123, 2-(7-Nitro-4-oxo-4H-quinazolin-3-yl)-N-[4-(pyrrolidine-1-sulfonyl)-phenyl]-acetamide] | > 25 µM |  |
| O=C(COC(=O)Cn1cnc2ccccc2c1=O)Nc1ccc(S(=O)(=O)N2CCCC2)cc1 [Compound 124, (4-Oxo-4H-quinazolin-3-yl)-acetic acid [4-(pyrrolidine-1-sulfonyl)-phenylcarbamoyl]-methyl ester] | > 25 µM |  |
| COc1ccc(S(=O)(=O)N(C)C)cc1NC(=O)COC(=O)Cn1cnc2ccccc2c1=O [Compound 125, (4-Oxo-4H-quinazolin-3-yl)-acetic acid (5-dimethylsulfamoyl-2-methoxy-phenylcarbamoyl)-methyl ester] | > 25 µM |  |
| COc1ccc(S(=O)(=O)N(C)C)cc1NC(=O)Cn1cnc2cc([N+](=O)[O-])ccc2c1=O [Compound 126, N-(5-Dimethylsulfamoyl-2-methoxy-phenyl)-2-(7-nitro-4-oxo-4H-quinazolin-3-yl)-acetamide] | > 25 µM |  |
| O=C(Cn1cnc2ccccc2c1=O)Nc1ccc(S(=O)(=O)O)cc1 [Compound 127, 4-[2-(4-Oxo-4H-quinazolin-3-yl)-acetylamino]-benzenesulfonic acid] | > 25 µM |  |
| CN(C)S(=O)(=O)c1cccc(COC(=O)Cn2cnc3ccccc3c2=O)c1 [Compound 128, (4-Oxo-4H-quinazolin-3-yl)-acetic acid 3-dimethylsulfamoyl-benzyl ester] | > 25 µM |  |
| Cc1ccc(S(=O)(=O)N(C)C)cc1NC(=O)Cn1cnc2ccc(Cl)cc2c1=O [Compound 129, 2-(6-Chloro-4-oxo-4H-quinazolin-3-yl)-N-(5-dimethylsulfamoyl-2-methyl-phenyl)-acetamide] | > 25 µM |  |
| NS(=O)(=O)c1ccc(CCNC(=O)Cn2c(=O)cnc3ccccc32)cc1 [Compound 130, 2-(2-Oxo-2H-quinoxalin-1-yl)-N-[2-(4-sulfamoyl-phenyl)-ethyl]-acetamide] | > 25 µM |  |
| NS(=O)(=O)c1cccc(NC(=O)Cn2nnc3ccccc3c2=O)c1 [Compound 131, 2-(4-Oxo-4H-benzo[d][1,2,3]triazin-3-yl)-N-(3-sulfamoyl-phenyl)-acetamide] | > 25 µM |  |
| CC(c1ccc(S(N)(=O)=O)cc1)N(C)C(=O)CCc1nc2ccccc2c(=O)[nH]1 (stereo not shown) [Compound 132, N-Methyl-3-(4-oxo-3,4-dihydro-quinazolin-2-yl)-N-[1-(4-sulfamoyl-phenyl)-ethyl]-propionamide] | > 25 µM |  |
| CC(C)NS(=O)(=O)c1ccc(NC(=O)C(C)N(C)Cc2nc3ccccc3c(=O)[nH]2)cc1 (stereo not shown) [Compound 133, N-(4-Isopropylsulfamoyl-phenyl)-2-[methyl-(4-oxo-3,4-dihydro-quinazolin-2-ylmethyl)-amino]-propionamide] | > 25 µM |  |
| O=C(Cn1cnc2ccc([N+](=O)[O-])cc2c1=O)Nc1ccc(S(=O)(=O)N2CCCCC2)cc1 [Compound 134, 2-(6-Nitro-4-oxo-4H-quinazolin-3-yl)-N-[4-(piperidine-1-sulfonyl)-phenyl]-acetamide] | > 25 µM |  |
| O=C(Cn1cnc2ccc([N+](=O)[O-])cc2c1=O)Nc1ccc(S(=O)(=O)N2CCOCC2)cc1 [Compound 135, N-[4-(Morpholine-4-sulfonyl)-phenyl]-2-(6-nitro-4-oxo-4H-quinazolin-3-yl)-acetamide] | > 25 µM |  |
| COc1ccc(NC(=O)Cn2cnc3ccccc3c2=O)cc1S(N)(=O)=O [Compound 136, N-(4-Methoxy-3-sulfamoyl-phenyl)-2-(4-oxo-4H-quinazolin-3-yl)-acetamide] | > 25 µM |  |
| Cc1ccc(-n2c(CCC(=O)NCc3ccc(S(N)(=O)=O)cc3)nc3ccccc3c2=O)cc1 [Compound 137, 3-(4-Oxo-3-p-tolyl-3,4-dihydro-quinazolin-2-yl)-N-(4-sulfamoyl-benzyl)-propionamide] | > 25 µM |  |
| O=C(Cn1cnc2ccc(Cl)cc2c1=O)Nc1ccc(S(=O)(=O)N2CCCCCC2)cc1 [Compound 138, N-[4-(Azepane-1-sulfonyl)-phenyl]-2-(6-chloro-4-oxo-4H-quinazolin-3-yl)-acetamide] | > 25 µM |  |
| O=C(Cn1cnc2cc(F)ccc2c1=O)Nc1ccc(S(=O)(=O)N2CCCCCC2)cc1 [Compound 139, N-[4-(Azepane-1-sulfonyl)-phenyl]-2-(7-fluoro-4-oxo-4H-quinazolin-3-yl)-acetamide] | > 25 µM |  |
